Measurements from ChEMBL document CHEMBL4043136, “Chiral-pool synthesis of 1,2,4-trisubstituted 1,4-diazepanes as novel σ1 receptor ligands” (Bioorg Med Chem, 2017).
The source made the active and inactive calls.

Legend:
[1] = target: Glutamate [NMDA] receptor (Homo sapiens) (UniProt Q05586+Q12879+Q13224+O15399+O60391+Q14957+Q8TCU5); assay: Displacement of [3H]-TCP from glutamate NMDA receptor phencyclidine binding site (unknown origin) at 1 uM
[2] = target: Alpha-1B adrenergic receptor (Homo sapiens) (UniProt P35368); assay: Displacement of [3H]-prazosin from adrenergic alpha1B receptor (unknown origin) at 1 uM
Alpha-1B adrenergic receptor (Homo sapiens), sequence (P35368 whole entry): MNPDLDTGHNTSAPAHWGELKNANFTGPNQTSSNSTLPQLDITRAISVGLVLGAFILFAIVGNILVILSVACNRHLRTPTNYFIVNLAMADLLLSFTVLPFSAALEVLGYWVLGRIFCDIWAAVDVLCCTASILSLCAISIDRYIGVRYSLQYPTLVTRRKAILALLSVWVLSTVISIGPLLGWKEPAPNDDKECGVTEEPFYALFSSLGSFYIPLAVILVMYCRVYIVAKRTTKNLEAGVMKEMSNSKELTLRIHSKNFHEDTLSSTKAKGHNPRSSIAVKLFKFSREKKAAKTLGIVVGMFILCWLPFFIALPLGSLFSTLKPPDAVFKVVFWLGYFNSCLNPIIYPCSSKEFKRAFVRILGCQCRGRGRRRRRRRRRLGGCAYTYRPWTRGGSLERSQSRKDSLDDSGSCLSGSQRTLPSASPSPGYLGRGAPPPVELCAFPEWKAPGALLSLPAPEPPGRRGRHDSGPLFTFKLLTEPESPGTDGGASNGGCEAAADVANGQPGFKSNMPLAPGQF

[3] = target: Sigma non-opioid intracellular receptor 1 (Cavia porcellus) (UniProt Q60492); assay: Agonist activity at sigma1 receptor assessed as potentiation of electrically stimulated contractions of the guinea pig vas deferens relative to (S)-3-PPP
Sigma non-opioid intracellular receptor 1 (Cavia porcellus), sequence (Q60492 whole entry): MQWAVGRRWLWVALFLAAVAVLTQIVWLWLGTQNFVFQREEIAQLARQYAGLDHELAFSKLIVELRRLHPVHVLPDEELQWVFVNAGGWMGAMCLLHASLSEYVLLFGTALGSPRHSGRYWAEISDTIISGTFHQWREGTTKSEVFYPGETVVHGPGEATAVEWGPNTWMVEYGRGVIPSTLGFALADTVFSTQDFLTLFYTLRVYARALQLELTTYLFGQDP

[4] = target: Sigma non-opioid intracellular receptor 1 (Cavia porcellus) (UniProt Q60492); assay: Agonist activity at sigma1 receptor assessed as potentiation of electrically stimulated contractions of the guinea pig vas deferens at 30 uM relative to (S)-3-PPP
[5] = target: Adenosine receptor A3 (Homo sapiens) (UniProt P0DMS8); assay: Displacement of [125I]-AB-MECA from adenosine A3 receptor (unknown origin) at 1 uM
Mus musculus [6] = assay: Toxicity in mouse assessed as diarrhea at 100 mg/kg, ip by Irwin test; format: organism-based; details: in vivo
[7] = target: Histamine H3 receptor (Homo sapiens) (UniProt Q9Y5N1); assay: Displacement of [3H]-R(-)-alpha-methylhistamine from histamine H3 receptor (unknown origin) at 1 uM
[8] = target: 5-hydroxytryptamine receptor 3A (Homo sapiens) (UniProt P46098); assay: Displacement of [3H]-GR-65630 from 5-HT3 receptor (unknown origin) at 1 uM
Rattus norvegicus = assay: Analgesic activity in rat assessed as inhibition of formalin-induced pain by measuring time spent licking injected paw in late phase (10 to 35 min) administered at 10 mg/kg by two-phase analgesic formalin assay; format: functional, organism-based
CYP3A4 = CYP3A4 (Homo sapiens, UniProt P08684); assay: Inhibition on CYP3A4 (unknown origin) at 1 uM; format: ADME
CYP3A4, sequence (P08684 whole entry): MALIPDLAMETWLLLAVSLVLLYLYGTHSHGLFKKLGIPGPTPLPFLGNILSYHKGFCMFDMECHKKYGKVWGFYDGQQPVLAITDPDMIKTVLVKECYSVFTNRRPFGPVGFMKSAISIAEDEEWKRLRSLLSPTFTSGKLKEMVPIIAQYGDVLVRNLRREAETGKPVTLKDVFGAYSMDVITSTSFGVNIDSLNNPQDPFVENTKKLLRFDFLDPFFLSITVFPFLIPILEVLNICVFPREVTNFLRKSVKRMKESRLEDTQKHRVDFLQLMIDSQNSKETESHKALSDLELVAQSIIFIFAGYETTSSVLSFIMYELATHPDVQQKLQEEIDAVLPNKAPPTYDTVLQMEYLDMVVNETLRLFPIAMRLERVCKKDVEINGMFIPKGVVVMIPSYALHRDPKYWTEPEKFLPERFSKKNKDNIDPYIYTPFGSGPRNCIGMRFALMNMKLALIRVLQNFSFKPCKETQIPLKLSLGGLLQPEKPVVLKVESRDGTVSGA

[9] = target: Endothelin receptor type B (Homo sapiens) (UniProt P24530); assay: Displacement of [125I]-endothelin-1 from endothelin ETB receptor (unknown origin) at 1 uM
[10] = target: D(2) dopamine receptor (Homo sapiens) (UniProt P14416); assay: Displacement of [3H]-sp iperone from dopamine D2 receptor (unknown origin) at 1 uM
Homo sapiens [11] = species on record: Homo sapiens; assay: Displacement of [3H]-alpha-5-methylene-ATP from purinergic P2x receptor (unknown origin) at 1 uM
Albumin = Albumin (Homo sapiens, UniProt P02768); assay: Binding affinity to human serum albumin at 60 uM; format: ADME; details: isolated protein
[12] = target: Sigma non-opioid intracellular receptor 1 (Cavia porcellus, UniProt Q60492); assay: Displacement of [3H]-pentazocine from sigma1 receptor in guinea pig brain membranes after 120 mins by liquid scintillation counting; format: cell membranes, Membrane
Sigma non-opioid intracellular receptor 1, sequence (Q60492 whole entry): as the sequence (Q60492 whole entry) above

[13] = Metabolic stability in human microsomes assessed as amount of parent compound remaining after 5 mins; format: ADME, Microsome; details: read-out: Stability
[14] = target: Neuropeptide Y receptor type 1 (Homo sapiens) (UniProt P25929); assay: Displacement of [125I]-Peptide YY from neuropeptide Y Y1 receptor (unknown origin) at 1 uM
Histamine H2 receptor [15] = target: T1, Histamine H2 receptor (Homo sapiens, UniProt P25021); assay: Displacement of [125I]-aminopotentidine receptor from histamine H2 receptor (unknown origin)
T1 sequence (P25021 whole entry): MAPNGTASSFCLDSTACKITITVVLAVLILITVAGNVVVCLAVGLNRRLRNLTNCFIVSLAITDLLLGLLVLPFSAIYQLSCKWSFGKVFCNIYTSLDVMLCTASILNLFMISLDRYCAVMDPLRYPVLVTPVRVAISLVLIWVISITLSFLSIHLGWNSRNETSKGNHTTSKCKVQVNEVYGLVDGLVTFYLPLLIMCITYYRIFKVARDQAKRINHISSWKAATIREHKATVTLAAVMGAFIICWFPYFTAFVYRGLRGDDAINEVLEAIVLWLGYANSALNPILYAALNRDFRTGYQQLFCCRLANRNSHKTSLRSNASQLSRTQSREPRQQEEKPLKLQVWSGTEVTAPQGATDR

Homo sapiens [16] = species on record: Homo sapiens; assay: Displacement of [3H]-sp iperone from dopamine D4.2 receptor (unknown origin) at 1 uM
[17] = target: Adenosine receptor A1 (Homo sapiens) (UniProt P30542); assay: Displacement of [3H]-DPCPX from adenosine A1 receptor (unknown origin) at 1 uM
[18] = target: Kappa-type opioid receptor (Homo sapiens) (UniProt P41145); assay: Displacement of [3H]-d iprenorphine from kappa opioid receptor (unknown origin) at 1 uM
Kappa-type opioid receptor (Homo sapiens), sequence (P41145 whole entry): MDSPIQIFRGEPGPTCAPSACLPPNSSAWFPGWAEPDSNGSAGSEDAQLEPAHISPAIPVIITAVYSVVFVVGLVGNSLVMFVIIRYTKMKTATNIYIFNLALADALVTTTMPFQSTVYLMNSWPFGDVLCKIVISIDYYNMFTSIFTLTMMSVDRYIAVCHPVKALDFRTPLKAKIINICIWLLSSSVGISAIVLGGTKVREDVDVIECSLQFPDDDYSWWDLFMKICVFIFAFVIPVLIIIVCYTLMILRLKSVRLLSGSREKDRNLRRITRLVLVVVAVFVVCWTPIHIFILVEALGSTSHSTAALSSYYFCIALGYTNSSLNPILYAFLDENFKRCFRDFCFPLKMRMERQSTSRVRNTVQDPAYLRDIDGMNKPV

[19] = target: Glucocorticoid receptor (Homo sapiens) (UniProt P04150); assay: Displacement of [3H]-dexamethasone from glucocorticoid receptor (unknown origin) at 1 uM
Glucocorticoid receptor (Homo sapiens), sequence (P04150 whole entry): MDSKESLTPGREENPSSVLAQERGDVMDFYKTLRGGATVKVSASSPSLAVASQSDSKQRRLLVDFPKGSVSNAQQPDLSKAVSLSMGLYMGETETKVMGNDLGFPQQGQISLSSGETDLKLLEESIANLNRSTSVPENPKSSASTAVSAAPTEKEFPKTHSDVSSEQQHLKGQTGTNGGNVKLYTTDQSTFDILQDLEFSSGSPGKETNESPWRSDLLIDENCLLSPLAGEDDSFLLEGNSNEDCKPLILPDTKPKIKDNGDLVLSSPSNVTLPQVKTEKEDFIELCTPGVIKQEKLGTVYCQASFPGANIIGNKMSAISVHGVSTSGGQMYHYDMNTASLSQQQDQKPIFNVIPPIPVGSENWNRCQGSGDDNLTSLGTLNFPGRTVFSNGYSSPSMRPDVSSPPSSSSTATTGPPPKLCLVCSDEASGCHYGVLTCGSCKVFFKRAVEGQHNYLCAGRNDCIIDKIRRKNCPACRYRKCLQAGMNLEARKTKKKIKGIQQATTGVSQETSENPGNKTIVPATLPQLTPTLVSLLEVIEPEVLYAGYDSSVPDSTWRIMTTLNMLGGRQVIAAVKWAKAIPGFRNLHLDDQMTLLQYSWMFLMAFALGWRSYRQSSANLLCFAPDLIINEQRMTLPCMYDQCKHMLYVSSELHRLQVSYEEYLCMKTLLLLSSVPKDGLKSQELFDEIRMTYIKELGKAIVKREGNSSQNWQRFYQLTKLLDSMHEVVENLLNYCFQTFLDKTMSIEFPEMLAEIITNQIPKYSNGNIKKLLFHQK

CYP2C9 = CYP2C9 (Homo sapiens, UniProt P11712); assay: Inhibition on CYP2C9 (unknown origin) at 1 uM; format: ADME
Histamine H2 receptor [20] = target: T1, Histamine H2 receptor; assay: Displacement of [125I]-aminopotentidine receptor from histamine H2 receptor (unknown origin) at 1 uM
[21] = target: C-C chemokine receptor type 5 (Homo sapiens) (UniProt P51681); assay: Displacement of [125I]-MIP-1beta from CCR5 receptor (unknown origin) at 1 uM
[22] = target: Muscarinic acetylcholine receptor M3 (Homo sapiens) (UniProt P20309); assay: Displacement of [3H]-N-methylscopolamine from muscarinic M3 receptor (unknown origin) at 1 uM
Homo sapiens [23] = species on record: Homo sapiens; assay: Displacement of [35S]-ATP-alpha-S from purinergic P2y receptor (unknown origin) at 1 uM
[24] = target: T2, Sigma intracellular receptor 2 (Rattus norvegicus, UniProt Q5U3Y7); assay: Displacement of [3H]-DTG from sigma2 receptor in rat liver membranes after 120 mins by liquid scintillation counting; format: cell membranes, Membrane
T2 sequence (Q5U3Y7 whole entry): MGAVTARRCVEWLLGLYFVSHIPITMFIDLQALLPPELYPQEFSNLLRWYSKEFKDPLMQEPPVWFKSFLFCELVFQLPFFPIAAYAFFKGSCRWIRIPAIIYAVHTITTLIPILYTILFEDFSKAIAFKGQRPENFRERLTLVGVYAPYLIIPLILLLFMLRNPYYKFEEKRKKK

[25] = target: Alpha-1A adrenergic receptor (Homo sapiens) (UniProt P35348); assay: Displacement of [3H]-prazosin from adrenergic alpha1A receptor (unknown origin) at 1 uM
Alpha-1A adrenergic receptor (Homo sapiens), sequence (P35348 whole entry): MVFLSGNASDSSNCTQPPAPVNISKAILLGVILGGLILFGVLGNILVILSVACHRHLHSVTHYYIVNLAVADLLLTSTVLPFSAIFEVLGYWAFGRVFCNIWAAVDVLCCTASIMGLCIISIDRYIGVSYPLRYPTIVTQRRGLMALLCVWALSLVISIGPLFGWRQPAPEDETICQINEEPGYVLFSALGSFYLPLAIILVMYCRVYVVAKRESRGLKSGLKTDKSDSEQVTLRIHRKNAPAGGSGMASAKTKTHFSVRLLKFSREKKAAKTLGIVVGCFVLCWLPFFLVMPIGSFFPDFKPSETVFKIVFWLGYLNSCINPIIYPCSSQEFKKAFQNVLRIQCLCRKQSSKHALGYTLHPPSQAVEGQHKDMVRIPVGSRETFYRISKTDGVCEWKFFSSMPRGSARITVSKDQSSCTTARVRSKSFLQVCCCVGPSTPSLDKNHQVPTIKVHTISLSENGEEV

[26] = target: Alpha-1D adrenergic receptor (Homo sapiens) (UniProt P25100); assay: Displacement of [3H]-prazosin from adrenergic alpha1D receptor (unknown origin) at 1 uM
Alpha-1D adrenergic receptor (Homo sapiens), sequence (P25100 whole entry): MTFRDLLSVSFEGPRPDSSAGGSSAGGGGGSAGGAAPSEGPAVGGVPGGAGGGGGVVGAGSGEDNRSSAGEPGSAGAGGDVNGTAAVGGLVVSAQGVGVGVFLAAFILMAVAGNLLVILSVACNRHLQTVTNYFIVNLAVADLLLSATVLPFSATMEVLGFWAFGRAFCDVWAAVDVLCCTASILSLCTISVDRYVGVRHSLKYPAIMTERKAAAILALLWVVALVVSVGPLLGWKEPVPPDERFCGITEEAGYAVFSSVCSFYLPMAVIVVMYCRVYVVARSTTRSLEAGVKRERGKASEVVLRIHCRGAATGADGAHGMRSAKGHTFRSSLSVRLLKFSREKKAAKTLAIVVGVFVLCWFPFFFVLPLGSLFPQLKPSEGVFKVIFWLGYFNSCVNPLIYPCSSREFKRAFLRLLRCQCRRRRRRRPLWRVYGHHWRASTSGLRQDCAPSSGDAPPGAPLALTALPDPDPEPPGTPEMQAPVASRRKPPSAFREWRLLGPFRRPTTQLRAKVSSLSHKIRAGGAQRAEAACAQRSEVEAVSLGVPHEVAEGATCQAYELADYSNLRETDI

[27] = Metabolic stability in rat microsomes assessed as amount of parent compound remaining after 5 mins; format: ADME, Microsome; details: read-out: Stability
Mus musculus [28] = assay: Toxicity in mouse assessed as increase in abdominal tone at 100 mg/kg, ip by Irwin test; format: organism-based; details: in vivo
[29] = target: Adenosine receptor A2a (Homo sapiens) (UniProt P29274); assay: Displacement of [3H]-CGS21680 from adenosine A2A receptor (unknown origin) at 1 uM
Adenosine receptor A2a (Homo sapiens), sequence (P29274 whole entry): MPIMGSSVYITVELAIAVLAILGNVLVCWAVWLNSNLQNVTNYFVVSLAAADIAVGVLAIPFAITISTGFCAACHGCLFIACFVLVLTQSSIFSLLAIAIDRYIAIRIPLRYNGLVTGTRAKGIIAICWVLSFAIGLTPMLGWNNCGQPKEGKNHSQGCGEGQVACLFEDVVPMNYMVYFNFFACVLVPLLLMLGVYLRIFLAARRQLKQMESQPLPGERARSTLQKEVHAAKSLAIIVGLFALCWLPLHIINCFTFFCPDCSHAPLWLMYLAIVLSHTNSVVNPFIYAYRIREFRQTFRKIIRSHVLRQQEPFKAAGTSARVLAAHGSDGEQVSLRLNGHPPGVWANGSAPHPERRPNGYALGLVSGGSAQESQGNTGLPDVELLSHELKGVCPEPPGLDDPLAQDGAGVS

[30] = target: Substance-P receptor (Homo sapiens) (UniProt P25103); assay: Displacement of [3H]-SR-140333 from tachykinin NK1 receptor (unknown origin) at 1 uM
Homo sapiens [31] = species on record: Homo sapiens; assay: Displacement of [3H]-Idazoxan from imidazoline I2 receptor (unknown origin) at 1 uM
Mus musculus [32] = assay: Toxicity in mouse assessed as diarrhea at 30 mg/kg, ip measured for 60 mins by Irwin test; format: organism-based; details: in vivo, 1 h
[33] = target: 5-hydroxytryptamine receptor 1A (Homo sapiens) (UniProt P08908); assay: Displacement of [3H]-8-OH-DPAT from 5-HT1A receptor (unknown origin) at 1 uM
[34] = target: Beta-2 adrenergic receptor (Homo sapiens) (UniProt P07550); assay: Displacement of [3H]-CGP-12177 from adrenergic beta2 receptor (unknown origin) at 1 uM
Beta-2 adrenergic receptor (Homo sapiens), sequence (P07550 whole entry, looked up): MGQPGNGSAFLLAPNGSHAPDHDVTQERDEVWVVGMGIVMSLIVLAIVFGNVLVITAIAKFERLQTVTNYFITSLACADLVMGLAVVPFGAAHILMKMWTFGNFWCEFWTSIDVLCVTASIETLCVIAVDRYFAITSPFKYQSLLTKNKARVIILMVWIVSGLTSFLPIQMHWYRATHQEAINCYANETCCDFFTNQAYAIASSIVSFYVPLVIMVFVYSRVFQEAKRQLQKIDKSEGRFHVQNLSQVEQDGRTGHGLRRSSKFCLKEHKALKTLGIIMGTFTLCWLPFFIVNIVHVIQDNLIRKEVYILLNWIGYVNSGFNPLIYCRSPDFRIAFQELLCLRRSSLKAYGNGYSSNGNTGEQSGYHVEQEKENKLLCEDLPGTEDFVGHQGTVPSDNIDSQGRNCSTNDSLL

COc1ccc(CN2CCCN(Cc3ccccc3)[C@@H](C)C2)cc1
0.86 nM: Ki [12]
0%: inhibition at 1 µM (CYP2C9)
< 50%: remaining at 5 min [13] | remaining at 5 min [27]
50%: inhibition (Histamine H2 receptor [20])
29%: Activity [4]
inactive: inhibition [1] | inhibition [2] | inhibition [5] | inhibition [7] | inhibition [8] | inhibition [9] | inhibition [10] | inhibition (Homo sapiens [11]) | inhibition [14] | inhibition (Homo sapiens [16]) | inhibition [17] | inhibition [18] | inhibition [19] | inhibition [21] | inhibition [22] | inhibition (Homo sapiens [23]) | inhibition [25] | inhibition [26] | inhibition [29] | inhibition [30] | inhibition (Homo sapiens [31]) | inhibition [33] | inhibition [34]
1000 nM: IC50 (Histamine H2 receptor [15])
active: Activity [3] Dose-dependent effect | Activity (Rattus norvegicus)
7%: inhibition at 1 µM (CYP3A4)
Toxic: Activity (Mus musculus [6]) | Activity (Mus musculus [28]) | Activity (Mus musculus [32])
46 nM: Ki [24]
1.6%: PB (Albumin)
